Source: ChEMBL document CHEMBL4118132, “Novel 5-methyl-2-phenylphenanthridium derivatives as FtsZ-targeting antibacterial agents from structural simplification of natural product sanguinarine” (2018)
Activity calls are given as the source filed them. The calls are words filed in the database; no cut-off is given here.

Assays:
Staphylococcus aureus [1] = experiment: Antibacterial activity against penicillin-susceptible Staphylococcus aureus ATCC 25923 after 24 hrs by broth microdilution method; type: functional; settings: ATCC 25923, 24 h
Staphylococcus aureus [2] = experiment: Antibacterial activity against methicillin-resistant Staphylococcus aureus ATCC 43300 after 24 hrs by broth microdilution method; type: functional; settings: ATCC 43300, 24 h
Staphylococcus aureus [3] = experiment: Antibacterial activity against penicillin-resistant Staphylococcus aureus clinical isolate after 24 hrs by broth microdilution method; type: functional
[4] = system: Staphylococcus epidermidis; experiment: Antibacterial activity against penicillin-resistant Staphylococcus epidermidis clinical isolate after 24 hrs by broth microdilution method; type: functional
Staphylococcus aureus [5] = experiment: Potency index, ratio of ciprofloxacin MIC to test compound MIC for penicillin-resistant Staphylococcus aureus clinical isolate; type: functional
Streptococcus pyogenes [6] = experiment: Antibacterial activity against penicillin-susceptible Streptococcus pyogenes after 24 hrs by broth microdilution method; type: functional
Bacillus subtilis [7] = experiment: Antibacterial activity against penicillin-susceptible Bacillus subtilis ATCC 9372 after 24 hrs by broth microdilution method; type: functional; settings: ATCC 9372, 24 h
Pseudomonas aeruginosa = experiment: Antibacterial activity against penicillin-susceptible Pseudomonas aeruginosa ATCC 27853 after 24 hrs by broth microdilution method; type: functional; settings: ATCC 27853, 24 h
Staphylococcus aureus [8] = experiment: Potency index, ratio of oxacillin sodium MIC to test compound MIC for methicillin-resistant Staphylococcus aureus ATCC 43300; type: functional
[9] = system: Staphylococcus epidermidis; experiment: Potency index, ratio of oxacillin sodium MIC to test compound MIC for penicillin-resistant Staphylococcus epidermidis clinical isolate; type: functional
Streptococcus pyogenes [10] = experiment: Potency index, ratio of oxacillin sodium MIC to test compound MIC for penicillin-susceptible Streptococcus pyogenes; type: functional
Bacillus subtilis [11] = experiment: Potency index, ratio of oxacillin sodium MIC to test compound MIC for penicillin-susceptible Bacillus subtilis ATCC 9372; type: functional
Bacillus pumilus = experiment: Potency index, ratio of oxacillin sodium MIC to test compound MIC for penicillin-susceptible penicillin-susceptible Bacillus pumilus ATCC 63202; type: functional
Streptococcus pyogenes [12] = experiment: Potency index, ratio of oxacillin sodium MIC to test compound MIC for penicillin-resistant Streptococcus pyogenes; type: functional
Staphylococcus aureus [13] = experiment: Bactericidal activity against penicillin-susceptible Staphylococcus aureus ATCC 25923 after 24 hrs by flat colony counting method; type: functional; settings: ATCC 25923, 24 h
Staphylococcus aureus [14] = experiment: Bactericidal activity against penicillin-susceptible Staphylococcus aureus ATCC 25923 assessed as bacterial levels at 32 ug/ml after 1 hr by time-kill assay (reference value: 6.13 to 6.14 log10CFU/ml); type: functional
Staphylococcus aureus [15] = experiment: Bactericidal activity against penicillin-susceptible Staphylococcus aureus ATCC 25923 assessed as bacterial levels at 16 ug/ml after 1 hr by time-kill assay (reference value: 6.13 to 6.14 log10CFU/ml); type: functional
Staphylococcus aureus [16] = experiment: Bactericidal activity against penicillin-susceptible Staphylococcus aureus ATCC 25923 assessed as bacterial levels at 16 ug/ml after 2 hrs by time-kill assay (reference value: 6.13 to 6.17 log10CFU/ml); type: functional
Staphylococcus aureus [17] = experiment: Bactericidal activity against penicillin-susceptible Staphylococcus aureus ATCC 25923 assessed as bacterial levels at 32 ug/ml after 4 hrs by time-kill assay (reference value: 6.13 to 6.71 log10CFU/ml); type: functional
Staphylococcus aureus [18] = experiment: Bactericidal activity against penicillin-susceptible Staphylococcus aureus ATCC 25923 assessed as bacterial levels at 16 ug/ml after 4 hrs by time-kill assay (reference value: 6.13 to 6.71 log10CFU/ml); type: functional
Staphylococcus aureus [19] = experiment: Bactericidal activity against penicillin-susceptible Staphylococcus aureus ATCC 25923 assessed as bacterial levels at 8 ug/ml after 4 hrs by time-kill assay (reference value: 6.13 to 6.71 log10CFU/ml); type: functional
Staphylococcus aureus [20] = experiment: Bactericidal activity against penicillin-susceptible Staphylococcus aureus ATCC 25923 assessed as bacterial levels at 32 ug/ml after 6 hrs by time-kill assay (reference value: 6.13 to 7.54 log10CFU/ml); type: functional
Staphylococcus aureus [21] = experiment: Bactericidal activity against penicillin-susceptible Staphylococcus aureus ATCC 25923 assessed as bacterial levels at 16 ug/ml after 6 hrs by time-kill assay (reference value: 6.13 to 7.54 log10CFU/ml); type: functional
Staphylococcus aureus [22] = experiment: Bactericidal activity against penicillin-susceptible Staphylococcus aureus ATCC 25923 assessed as bacterial levels at 8 ug/ml after 6 hrs by time-kill assay (reference value: 6.13 to 7.54 log10CFU/ml); type: functional
Staphylococcus aureus [23] = experiment: Bactericidal activity against penicillin-susceptible Staphylococcus aureus ATCC 25923 assessed as bacterial levels at 16 ug/ml after 12 hrs by time-kill assay (reference value: 6.13 to 8.01 log10CFU/ml); type: functional
Staphylococcus aureus [24] = experiment: Bactericidal activity against penicillin-susceptible Staphylococcus aureus ATCC 25923 assessed as bacterial levels at 8 ug/ml after 12 hrs by time-kill assay (reference value: 6.13 to 8.01 log10CFU/ml); type: functional
Staphylococcus aureus [25] = experiment: Bactericidal activity against penicillin-susceptible Staphylococcus aureus ATCC 25923 assessed as bacterial levels at 32 ug/ml after 24 hrs by time-kill assay (reference value: 6.13 to 8.34 log10CFU/ml); type: functional
Staphylococcus aureus [26] = experiment: Bactericidal activity against penicillin-susceptible Staphylococcus aureus ATCC 25923 assessed as bacterial levels at 8 ug/ml after 24 hrs by time-kill assay (reference value: 6.13 to 8.34 log10CFU/ml); type: functional
[27] = molecular target: T1, Cell division protein FtsZ (Staphylococcus aureus) (UniProt P0A031); experiment: Inhibition of FtsZ in penicillin-susceptible Staphylococcus aureus ATCC 25923 assessed as increase in length of bacteria at 0.125 ug/ml after 5 hrs by phase-contrast light microscopic method
T1 sequence (whole entry): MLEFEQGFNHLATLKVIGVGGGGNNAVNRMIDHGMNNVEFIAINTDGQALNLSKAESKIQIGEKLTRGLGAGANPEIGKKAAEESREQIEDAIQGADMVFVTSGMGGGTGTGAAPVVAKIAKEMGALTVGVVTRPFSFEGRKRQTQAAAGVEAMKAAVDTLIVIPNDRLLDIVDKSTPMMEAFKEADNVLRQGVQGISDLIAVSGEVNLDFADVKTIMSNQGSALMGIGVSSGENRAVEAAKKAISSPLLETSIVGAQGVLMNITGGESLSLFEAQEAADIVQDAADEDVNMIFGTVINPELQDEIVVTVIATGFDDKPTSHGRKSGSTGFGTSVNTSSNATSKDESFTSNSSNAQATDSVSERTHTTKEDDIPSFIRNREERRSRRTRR

SMILES: Cc1cc(-c2ccc(C(F)(F)F)cc2)cc2c3ccccc3c[n+](C)c12.[Cl-]
- MIC (Staphylococcus aureus [1]): 0.06 µg/mL
- MIC (Staphylococcus aureus [2]): 0.25 µg/mL
- MIC (Staphylococcus aureus [3]): 0.25 µg/mL
- MIC [4]: 0.125 µg/mL
- Ratio (Staphylococcus aureus [5]): 64
- MIC (Streptococcus pyogenes [6]): 1 µg/mL
- MIC (Bacillus subtilis [7]): 0.06 µg/mL
- MIC (Pseudomonas aeruginosa): > 64 µg/mL
- Ratio (Staphylococcus aureus [8]): 256
- Ratio [9]: 512
- Ratio (Streptococcus pyogenes [10]): 1
- Ratio (Bacillus subtilis [11]): 67
- Ratio (Bacillus pumilus): 533
- Ratio (Streptococcus pyogenes [12]): 32
- MBC (Staphylococcus aureus [13]): 16 µg/mL
- Activity (Staphylococcus aureus [14]): 5.57 log10CFU/ml
- Activity (Staphylococcus aureus [15]): 5.89 log10CFU/ml
- Activity (Staphylococcus aureus [16]): 6 log10CFU/ml
- Activity (Staphylococcus aureus [17]): 4 log10CFU/ml
- Activity (Staphylococcus aureus [18]): 5.75 log10CFU/ml
- Activity (Staphylococcus aureus [19]): 6.04 log10CFU/ml
- Activity (Staphylococcus aureus [20]): 0 log10CFU/ml
- Activity (Staphylococcus aureus [21]): 5.42 log10CFU/ml
- Activity (Staphylococcus aureus [22]): 6.07 log10CFU/ml
- Activity (Staphylococcus aureus [23]): 4 log10CFU/ml
- Activity (Staphylococcus aureus [24]): 5.78 log10CFU/ml
- Activity (Staphylococcus aureus [25]): 0 log10CFU/ml
- Activity (Staphylococcus aureus [26]): 5.88 log10CFU/ml
- inhibition [27]: Active
